Measurements published in US6153768A, “Benzopyran derivatives” (C & C Research Laboratories, priority 1996, dated 2000).

Legend:
[1] = tested on: estrogen receptor; conditions: literature, in words; cited from earlier work
[2] = tested on: increase of uterine weight by estradiol in ovariectomized mice; test: Anti-estrogenic activity, inhibition of uterine weight increase, subcutaneous administration; type: in vivo, mice (ICR); conditions: s.c.; for Inhibition (%) of increase of uterine weight: 30 μg/mouse, 3 days; for inhibition of increase of uterine weight compared to ZM189154: in words
Method: Anti-estrogenic activity of the test compound by subcutaneous administration was determined according to the method described hereinafter. In this experiment, the compounds of Examples 6, 7, 12 and 46 were used as the test compound and the known anti-estrogenic compound ZM189154 was used as the control compound as in Experiment 1.
In this experiment, the test compound or the control compound was dissolved in peanut oil (Sigma) and injected subcutaneously for 3 days, once a day. After 24 hours from the last injection, the test animal was sacrificed and uterus was removed and weighed.

[3] = tested on: MCF-7 cells; test: Cell growth inhibiting activity (MTT, 0.1 nM estradiol, 7 days); type: cell-based; conditions: Homo sapiens, MCF7, 168 h, MCF-7, 0.1 nM estradiol
Method: In this experiment, the cell growth inhibiting activity was determined by using the compounds of Examples 6, 7, 12 and 46 as the test compound and the known anti-estrogenic compound ZM189154 having the following structure (see, EP0124369 B1) as the control compound, according to the method described hereinafter. [drawing 72]
One day before drug administration, incubated MCF-7 cells were plated in 96-well plate in the concentration of 5×10^3 cells per well. After the 96-well plate was incubated for one day, 0.1 nM of estradiol and the test compound in the given concentration were added to each well. The plate was incubated for 7 days at 37° C. and then MTT solution (Sigma) was added to each well in the amount of 15 μl and allowed to react for 2 hours at 37° C. After the reaction is completed, the solubilizing/stopping solution (constitution: SDS, acetic acid, N,N-dimethylformamide) was added to each well in the amount of 100 μl. Then, the absorption for each well at 570 nm was measured by means of a plate reader. IC50 value for inhibiting cell growth of 50% was calculated from the results as measured and described in the following Table 1.

[4] = tested on: increase of uterine weight by estradiol in ovariectomized mice; test: Anti-estrogenic activity, inhibition of uterine weight increase, oral administration; type: in vivo, mice (ICR); conditions: 10 mg/kg, p.o., 3 days
Method: Oral anti-estrogenic activity of the test compound was determined according to the method described hereinafter. In this experiment, the compound of Example 7 was used as the test compound and the known anti-estrogenic compound ZM189154 was used as the control compound as in Experiment 2.
In this experiment, the test compound or the control compound was suspended in 5% arabic gum solution and orally administered for 3 days, once a day. After 24 hours from the last administration, the test animal was sacrificed and uterus was removed and weighed.

[5] = tested on: mouse femur; test: Effect on bone mineral density of mouse femur; type: in vivo, BALB/c nude mouse (female); conditions: for whole BMD / proximal BMD / distal BMD: mean ± SE, s.c. once a week, 6 weeks; for whole BMD: control 35.63 ± 0.97; for proximal BMD: control 35.95 ± 1.50; for distal BMD: control 37.80 ± 1.75
Method: The effect of the compound of the present invention on bone mineral density of mouse femur was determined according to the method described hereinafter. In this experiment, the compounds of Example 7 was used as the test compound and the known anti-estrogenic compound ZM189154 was used as the control compound as in Experiment 2.
MCF-7 cells (ATCC) as human breast cancer cell were transplanted subcutaneously into BALB/c nude mouse (female, 6 weeks) and then estradiol was percutaneously injected twice a week in an amount of 0.01 mg/mouse, for 3 weeks. Thereafter, estradiol was administered once a week in the same amount and the test compound or the control compound dissolved in 10% ethanol-90% peanut oil was administered. The control group received only vehicle. The test or control compound was administered subcutaneously in an amount of […], once a week. After the administration of the test compound for 6 weeks, left femur was excised and soft tissue was removed therefrom. Then the bone mineral density (BMD) was measured in a SPA mode by means of dual energy X-ray absorptiometry DCS-600 (Aloka). For interpretation, femur was divided into ten in the direction of long axis and the mean […] of 3, 4 and 3 fragments from proximal position were calculated. Each of the fragments was represented as proximal, middle or distal, respectively.

Row | IC50 [3] | SMILES | Inhibition (%) of increase of uterine weight [2] | inhibition of increase of uterine weight compared to ZM189154 [2] | other results
1 |  | CC/C(=C(\c1ccccc1)c1ccc(OCCN(C)C)cc1)c1ccccc1 [Tamoxifen] |  |  | estrogenic activity (agonistic effect) [1]: exhibits estrogenic activity in some organs
2 | 33 nM | C[C@@]1(c2ccc(O)cc2)COc2cc(O)ccc2[C@@H]1CCCCCCCCC[S+]([O-])CCN1CCCCC1 (mixture of isomers) [Example 46, (3RS,4RS)-7-hydroxy-3-(4-hydroxyphenyl)-3-methyl-4-[9-((2-piperidinoethyl)sulfinyl)nonyl]-2,3-dihydro-4H-benzopyran] | 16.7% | rather superior to that of ZM189154 | 
3 | 277 nM | C[C@@]1(c2ccc(O)cc2)COc2cc(O)ccc2[C@@H]1CCCCCCCCCSCCCC(F)(F)C(F)(F)F (racemic) [Example 6, (3RS,4RS)-7-hydroxy-3-(4-hydroxyphenyl)-3-methyl-4-[9-(4,4,5,5,5-pentafluoropentylthio)nonyl]-2,3-dihydro-4H-benzopyran] | 83.1% | rather superior to that of ZM189154 | 
4 | 54.8 nM | C[C@@]1(c2ccc(O)cc2)COc2cc(O)ccc2[C@@H]1CCCCCCCCC[S+]([O-])CCCC(F)(F)C(F)(F)F (mixture of isomers) [Example 7, (3RS,4RS)-7-hydroxy-3-(4-hydroxyphenyl)-3-methyl-4-[9-(4,4,5,5,5-pentafluoropentylsulfinyl)nonyl]-2,3-dihydro-4H-benzopyran] | 87.0% | rather superior to that of ZM189154 | Inhibition (%) of increase of uterine weight [4]: 68.1%; whole BMD [5]: 37.23 ± 1.41 mg/cm^2; proximal BMD [5]: 35.05 ± 2.05 mg/cm^2; distal BMD [5]: 36.29 ± 1.46 mg/cm^2
5 |  | CCCCN(C)C(=O)CCCCCCCCCC[C@@H]1Cc2cc(O)ccc2[C@H]2CC[C@]3(C)[C@@H](O)CC[C@H]3[C@H]12 [7 α--(CH2)10 CONMeBu derivative] |  |  | anti-estrogenic activity [1]: exhibit anti-estrogenic activity
6 | 77 nM | CC1(c2ccc(O)cc2)CCc2cc(O)ccc2C1CCCCCCCCC[S+]([O-])CCCC(F)(F)C(F)(F)F (stereo not shown) [ZM189154] | 73.8% |  | Inhibition (%) of increase of uterine weight [4]: 41.7%; whole BMD [5]: 34.57 ± 1.40 mg/cm^2; proximal BMD [5]: 34.19 ± 2.19 mg/cm^2; distal BMD [5]: 32.80 ± 1.30 mg/cm^2; decrease of BMD at distal femur ([5]; vs control): 13.3%; decrease of BMD at proximal femur ([5]; vs control): 4.9%; decrease of BMD at whole femur ([5]; vs control): 3.0%
7 |  | C[C@]12CC[C@@H]3c4ccc(O)cc4C[C@@H](CCCCCCCCC[S+]([O-])CCCC(F)(F)C(F)(F)F)[C@H]3[C@@H]1CC[C@@H]2O (stereo partly shown) |  |  | estrogenic activity (agonistic effect) [1]: without agonistic effect
8 | 524 nM | C[C@@]1(c2ccc(O)cc2)COc2cc(O)ccc2[C@@H]1CCCCCCCCSCCCC(F)(F)C(F)(F)F (racemic) [Example 12, (3RS,4RS)-7-hydroxy-3-(4-hydroxyphenyl)-3-methyl-4-[8-(4,4,5,5,5-pentafluoropentylthio)octyl]-2,3-dihydro-4H-benzopyran] | 74.8% | rather superior to that of ZM189154 | 
